Data from patent publication US7455990B2, “Method of extracting recombinant hexose oxidase” (priority 1999, dated 2008).
Marks after values point to notes of the source that are not given here.

Tests used:
Hansenula polymorpha [1] = assay: HOX extraction with CTAB compared to Triton X-100; type: cell-based; conditions: for HOX activity: 22 h, 25°C, 200 rpm, control ferment 1.2
Procedure: CTAB or Triton X-100 was added to 5 mL of ferment, (sample HOX9954, Mut 45, 18.10.99, HVP) in a centrifuge tube. Water was added to the control. The samples were incubated at 25° C. for 22 h at 200 rpm. After incubation the samples were centrifuged and the supernatant was analyzed for HOX activity as previously described.

[2] = test system: cell suspension (HOX9910B); assay: Comparison between CTAB and other emulsifiers for extraction of HOX; type: cell-based, Hansenula polymorpha; conditions: 20 h, 25°C, control (cells and buffer) = 100
Procedure: Five mL of cell suspension (cells+supernatant) was added to a 15 mL centrifuge tube (HOX9910B, 305 g cells/liter wet weight, 1.6 U/ml extracellular HOX activity). Cells were separated by centrifugation at 4000 g for 10 min. Cells were then re-suspended in 4.0 mL 25 mM citric acid, pH 6.3 supplemented with either CTAB, emulsifiers SLL, YN, capric acid, lysolecithin, or lecithin. The cells were then incubated for 20 hours at 25° C. (500 rpm).

[3] = Determination of LTAB by LC-ESI-MS (optimised method) in fermentation supernatants; conditions: 0.20% (w/v) LTAB added
Procedure: The analysis method for the quaternary ammonium compounds was optimised by using a different column, and by using different mobile phase. Two 90 L scale fermentations (Vest0002b with a biomass concentration of 314 g/L wet cells and Vest0003b with a biomass concentration of 332 g/L wet cells) were added LTAB to a concentration of 0.20% (w/v), and HOX was extracted for 24 h. A sample from each fermentation was centrifuged at 10000 g for 10 minutes, and the resulting supernatants were withdrawn for LTAB analysis. The following method was used to quantify the LTAB content in the supernatants by means of LC-ESI-MS on a Hewlett-Packard 1100 HPLC-MS system consisting of the following units:
The system was equipped with a PLRP-S, 100 Å, 5 μm, 250×4.6 […] id. (Polymer Laboratories) column. Column temperature was 25° C.
The chromatographic conditions were a mobile phase consisting of 0.1% heptafluorobutyric acid in methanol. The column was run with a solvent flow rate of 1.00 mL/min and an injection volume of 5 μL. The samples were diluted 25 fold with methanol and filtered through Gelman GHP Acrodisc 13 mM Minispike […] before injection.
The detector settings were the following: SIM parameters: m/z 228.1 (lauroyltrimethylammonium cation). […]

Hansenula polymorpha [4] = assay: HOX extraction with different quaternary ammonium compounds; type: cell-based; conditions: final concentration 0.4% (w/v); 24 h, 25°C, 200 RPM; LTAB = 100
Procedure: Several quaternary ammonium compounds were tested with respect to extraction of the intracellular HOX enzyme from Hansenula polymorpha. A sample of fermentation broth was withdrawn from a 6 L scale fermentation where the biomass concentration was approximately 340 g wet weight per L. One mL of a 4% (w/v) solution of each of the quaternary ammonium compounds listed in Table 8 was added to 9 mL of fermentation broth in plastic tubes. After 24 h of incubation at 25° C. at 200 RPM the tubes were centrifuged 10 min. at 12000 g. The supernatants were analysed for HOX activity using the HOX assay as previously described.

Hansenula polymorpha [5] = assay: Time course of HOX extraction with CTAB, LTAB and CTAC; type: cell-based; conditions: 25°C
Procedure: The time course of HOX extraction was studied with CTAB, LTAB and CTAC. A fermentation sample containing 280 g wet weight of Hansenula polymorpha per L was withdrawn from the fermentor. A 4% (w/v) solution of CTAB, LTAB and CTAC was added to a final concentration of 0.2 or 0.4% (w/v) to plastic tubes containing 9 mL of fermentation broth. After 0, 7, 17, 24, and 48 h of incubation at 25° C. at 200 RPM the tubes were centrifuged 10 min. at 12000×g. The supernatants were analysed for HOX activity using the HOX assay as previously described.

[6] = test system: Pichia pastoris strain #349; assay: HOX extraction with LTAB from Pichia pastoris; type: cell-based; conditions: 180 μL of 10% (w/v) LTAB in 9 mL broth; 24 h, 30°C; control = 100
Procedure: The extracting effect of LTAB was tested on the Pichia pastoris strain #349 that produces HOX intracellularly. A sample of fermentation broth was withdrawn from a 6 L scale fermentation where the biomass concentration was approximately 232 g wet weight per L. Nine mL of fermentation broth was added to plastic tubes together with 0 (control) or 180 μL of a 10% (w/v) solution of LTAB. After 24 h of incubation at 30° C. at 20 RPM the tubes were centrifuged 5 min. at 9000 g. The supernatants were analysed for HOX activity using the HOX assay as previously described.

H. polymorpha = assay: Comparison of mechanical and LTAB recovery of glucan lyase (DNS method); type: cell-based, Hansenula polymorpha; conditions: induced cells, transformants 2 and 8; 0.2% LTAB versus Mini Bead-Beater
Procedure: The cells are resuspended in 5 mM sodium acetate pH=5.5 with 0.2% LTAB at 30% wet biomass in order to lyse the cells and release the intracellular glucan lyase.
The tubes are incubated over night with shaking at 37° C. The cells are harvested by centrifuging at 4000 rpm in 10 minutes and the glucan lyase activity is determined in the cell-free extract and in the pellet. This is done to check if LTAB had opened the cells successfully before starting the purification of glucan lyase.
Two transformants that expressed a high level of glucan lyase (transformant number 2 and 8) are grown at 24° C.
To compare the specific activity under repressed and induced conditions samples are collected when the cells are grown in YND+2% glucose (repressed) and in YND+1% glycerol with 1% methanol added on the second day of growth (induced).
The assay is performed as described in S. Yu et al., 1998. The red colour indicates glucan lyase activity is much stronger when the induced cells are opened with LTAB compared with opening of the cells mechanically on a Mini Bead-Beater (E1-E12 compared with C1-C12). […] When the cells are grown in YND+2% glucose a very low specific activity is observed as expected since the FMD promoter is repressed in this media. […] The assay detected a quite high glucan lyase activity in the pellet.

[7] = test system: cell suspension (HOX9926-7); assay: Extraction of HOX by CTAB combined with salts and at different temperatures; type: cell-based, Hansenula polymorpha; conditions: for HOX activity, %: 26 h, 25°C, control = 100
Procedure: In order to examine the mechanism of the CTAB effect, CTAB was combined with chaotrophic and nonchaotrophic salts. Five mL cell suspension (cells+supernatant) was added to a 15 mL centrifuge tube (HOX9926-7, 317 g cells/liter wet weight, 0.3 U/mL extracellular HOX activity). Cells were separated by centrifugation at 4000 g for 10 min. The supernatant was then supplemented with either CTAB, CTAB+NaCl, CTAB+urea, CTAB+ammonium sulphate, or the non-ionic detergent, octyl-glucoside. The cells were then re-suspended in 4.0 mL supernatant and incubated for 26 hours at 25° C. (500 rpm). In this experiment, the effect of shaking and temperature was also investigated. After incubation, the cell-free extract was used to estimate HOX activity using the HOX assay as outlined in Example 4.

[8] = 0.5% in 25 mM citric acid pH 6.3
[9] = 1.0% in 25 mM citric acid pH 6.3
[10] = 0.4% in 25 mM citric acid pH 6.3

polyethoxylated octylphenol [Triton X-100]
HOX activity (Hansenula polymorpha [1]; 0.1%): 1.5 U/mL
extracting effect on HOX (Hansenula polymorpha [1]; 0.1-1.0%): no extracting effect
HOX activity (Hansenula polymorpha [1]; 0.2%): 1.6 U/mL
HOX activity (Hansenula polymorpha [1]; 0.4%): 1.8 U/mL
HOX activity (Hansenula polymorpha [1]; 0.6%): 1.9 U/mL
HOX activity (Hansenula polymorpha [1]; 1.0%): 1.9 U/mL

CCCCCCCCCCCC(=O)OC(C)C(=O)OC(C)C(=O)[O-].[Na+] (stereo not shown) [emulsifier SSL, Sodium Lauroyl Lactylate]
HOX activity, % [2, 8]: 160%
HOX activity, % [2, 9]: 140%

3-sn-phosphatidylcholine [lecithin]
HOX activity, % [2, 10]: 140%

Lauroyl Trimethyl Ammonium Bromide [LTAB]
share of the added LTAB found in the cell free fraction [3]: about 27%
Extracted HOX activity normalised with extracted amount with LTAB (Hansenula polymorpha [4]): 100
Extracted HOX normalised to 0.4% (w/v) LTAB after 48 h (Hansenula polymorpha [5]; 0.2% (w/v), 0 h): 5
Extracted HOX normalised to 0.4% (w/v) LTAB after 48 h (Hansenula polymorpha [5]; 0.2% (w/v), 7 h): 15
Extracted HOX normalised to 0.4% (w/v) LTAB after 48 h (Hansenula polymorpha [5]; 0.2% (w/v), 17 h): 49
Extracted HOX normalised to 0.4% (w/v) LTAB after 48 h (Hansenula polymorpha [5]; 0.2% (w/v), 24 h): 65
Extracted HOX normalised to 0.4% (w/v) LTAB after 48 h (Hansenula polymorpha [5]; 0.2% (w/v), 48 h): 78
Extracted HOX normalised to 0.4% (w/v) LTAB after 48 h (Hansenula polymorpha [5]; 0.4% (w/v), 0 h): 6 ± 1,
Extracted HOX normalised to 0.4% (w/v) LTAB after 48 h (Hansenula polymorpha [5]; 0.4% (w/v), 7 h): 25
Extracted HOX normalised to 0.4% (w/v) LTAB after 48 h (Hansenula polymorpha [5]; 0.4% (w/v), 17 h): 74
Extracted HOX normalised to 0.4% (w/v) LTAB after 48 h (Hansenula polymorpha [5]; 0.4% (w/v), 24 h): 83 ± 8,
Extracted HOX normalised to 0.4% (w/v) LTAB after 48 h (Hansenula polymorpha [5]; 0.4% (w/v), 48 h): 100 ± 25,
Extracted HOX activity normalised to the control tube without LTAB [6]: 3000^c
specific activity of glucan lyase, LTAB-treated cells versus mechanical opening (H. polymorpha): ~60 fold

CCCCCCCCCC(=O)O [capric acid, decanoic acid]
HOX activity, % [2, 8]: 120%
HOX activity, % [2, 9]: 140%

lysophosphatidylcholine [lyso-lecithin]
HOX activity, % [2, 10]: 260%

CCCCCCCCCCCCCC[N+](C)(C)C.[Cl-] [MTAC, Myristyl Trimethyl Ammonium Chloride]
Extracted HOX activity normalised with extracted amount with LTAB (Hansenula polymorpha [4]): 71

CCCCCCCCO[C@@H]1O[C@H](CO)[C@@H](O)[C@H](O)[C@H]1O [octyl-glycoside, octyl-glucoside]
extracting effect on HOX ([7]; 0.2% and 0.4%): no significant extracting effect
HOX activity, % ([7]; 0.2%): 130%
HOX activity, % ([7]; 0.4%, 500 rpm): 190%

CCCCCCCCCCCCCCCCCC(=O)[N+](C)(C)C.[Br-] [STAB, Stearoyl Trimethyl Ammonium Bromide]
Extracted HOX activity normalised with extracted amount with LTAB (Hansenula polymorpha [4]): 38
